The subject of series [1] is squamous cell carcinoma. The series can be described thus: Working Example VI: mouth squamous cell carcinoma patient. Type of series: in vivo, human. Particulars: 5 cc swish and spit, 100 μM. The method, then: A mouth lesion is noted in a smoker during a routine dental visit. The lesion is found to be a squamous cell carcinoma. […] The patient is given a 5 cc solution of paraquat swish and spit (at a dose of 100 μM).

For series [2], the system named is aconitase. In words: Aconitase/fumarase activity ratio in macrophage lysates. Format: cell-based. Particulars: 24 hours, FIG. 5. As to the method: Aconitase activity (a sensitive marker of O2^- and peroxynitrite formation) and fumarase activity were measured as described in Patel, M., et al., Nuron 16, 345-355 (1996). Specifically aconitase activity was determined spectrophotometrically by monitoring the formation of cis-aconitate from isocitrate at 240 nm. Fumarase activity was measured by monitoring the increased absorbence at 240 mn following the formation of fumarate from L-malate. Aconitase activity was expressed as a ratio of aconitase activity to flimarase activity in order to correct for differences in cell numbers.
Aconitase activity was measured in cell lysates 24 hours after cytomix, DETA nonoate and paraquat treatments. Macrophages were grown in 24-well plates and treated with cytomix or 250 μM DETA NONOate. Control, activated (cytomix) and DETA NONOate groups were treated with paraquat (0.1 mM) or not treated with paraquat. The results are shown in FIG. 5 where an asterisk indicates a significant difference from control group, p<0.05.

Series [3] concerns Rabbit aortic rings. The series can be described thus: Acetylcholine-induced (EDRF) relaxation of aortic rings. As to the method: Rabbit aortic rings were treated with increasing concentrations of paraquat or L-NAME (2 mM) prior to initiating a constriction response with 1 μM phenylephrine (initial contraction).
New Zealand white male rabbits weighting 3-4 kg were anaesthetized with phenobarbital (30 mg/kg/iv). The descending thoracic aorta was isolated and placed in Krebs-Henseleit buffer (pH 7.4) and stored at 4° C. until used. The vessels were cut into 5 mm rings and submerged in 25 ml double jacketed tissue baths containing Krebs-Henseleit buffer bubbled with 95% oxygen and 5% carbon dioxide at 37° C. Rings were hung on stainless steel stirrups connected to calibrated force transducers. Rings were equilibrated with 2 g resting tension for 1 hour before use and contracted with phenylephrine (1 μM). Rings were incubated with paraquat for 15 minutes before acetylcholine-induced or exogenous relaxations were performed.
Endothelial-derived relaxing factor (EDRF) responses were initiated by addition of acetylcholine.

Series [4] is described as follows: Working Example XIII: accident victim with hypotension. Type of series: in vivo, human. The conditions noted are these: IV 0.4 milligrams per kilogram over 2 hours. As to the method: A accident victim presents with a blood pressure of 80/60 and a hematocrit of 20. They are bleeding profusely from an abdominal would and doctors are having difficulty maintaining their blood pressure with fluid resuscitation. They are begun on an intravenous drip of paraquat of 0.4 milligrams per kilogram over 2 hours.

In series [5] the test system is solid tumor. The series can be described thus: Working Example VII: solid tumor patient. Particulars: IV infusion 4 milligram per kilogram, seven cycles, after 5,6 MEXAA; two weeks. Format: in vivo, human. As to the method: A person is given the anti-tumor agent 5,6 dimethylxanthemone-4-acetic acid (5,6 MEXAA) to treat a solid tumor identified by biopsy on the left lower extremity, and lung. […] At this time, the patient is treated with intravenous infusion of paraquat (4 milligram per kilogram) for seven cycles.

In series [6] the target is T1, Recombinant rat neuronal nitric oxide synthase (NOS1) (Rattus norvegicus, UniProt P29476).
T1 construct: purchased Oxis, Portland, Oreg
T1 sequence (P29476 whole entry): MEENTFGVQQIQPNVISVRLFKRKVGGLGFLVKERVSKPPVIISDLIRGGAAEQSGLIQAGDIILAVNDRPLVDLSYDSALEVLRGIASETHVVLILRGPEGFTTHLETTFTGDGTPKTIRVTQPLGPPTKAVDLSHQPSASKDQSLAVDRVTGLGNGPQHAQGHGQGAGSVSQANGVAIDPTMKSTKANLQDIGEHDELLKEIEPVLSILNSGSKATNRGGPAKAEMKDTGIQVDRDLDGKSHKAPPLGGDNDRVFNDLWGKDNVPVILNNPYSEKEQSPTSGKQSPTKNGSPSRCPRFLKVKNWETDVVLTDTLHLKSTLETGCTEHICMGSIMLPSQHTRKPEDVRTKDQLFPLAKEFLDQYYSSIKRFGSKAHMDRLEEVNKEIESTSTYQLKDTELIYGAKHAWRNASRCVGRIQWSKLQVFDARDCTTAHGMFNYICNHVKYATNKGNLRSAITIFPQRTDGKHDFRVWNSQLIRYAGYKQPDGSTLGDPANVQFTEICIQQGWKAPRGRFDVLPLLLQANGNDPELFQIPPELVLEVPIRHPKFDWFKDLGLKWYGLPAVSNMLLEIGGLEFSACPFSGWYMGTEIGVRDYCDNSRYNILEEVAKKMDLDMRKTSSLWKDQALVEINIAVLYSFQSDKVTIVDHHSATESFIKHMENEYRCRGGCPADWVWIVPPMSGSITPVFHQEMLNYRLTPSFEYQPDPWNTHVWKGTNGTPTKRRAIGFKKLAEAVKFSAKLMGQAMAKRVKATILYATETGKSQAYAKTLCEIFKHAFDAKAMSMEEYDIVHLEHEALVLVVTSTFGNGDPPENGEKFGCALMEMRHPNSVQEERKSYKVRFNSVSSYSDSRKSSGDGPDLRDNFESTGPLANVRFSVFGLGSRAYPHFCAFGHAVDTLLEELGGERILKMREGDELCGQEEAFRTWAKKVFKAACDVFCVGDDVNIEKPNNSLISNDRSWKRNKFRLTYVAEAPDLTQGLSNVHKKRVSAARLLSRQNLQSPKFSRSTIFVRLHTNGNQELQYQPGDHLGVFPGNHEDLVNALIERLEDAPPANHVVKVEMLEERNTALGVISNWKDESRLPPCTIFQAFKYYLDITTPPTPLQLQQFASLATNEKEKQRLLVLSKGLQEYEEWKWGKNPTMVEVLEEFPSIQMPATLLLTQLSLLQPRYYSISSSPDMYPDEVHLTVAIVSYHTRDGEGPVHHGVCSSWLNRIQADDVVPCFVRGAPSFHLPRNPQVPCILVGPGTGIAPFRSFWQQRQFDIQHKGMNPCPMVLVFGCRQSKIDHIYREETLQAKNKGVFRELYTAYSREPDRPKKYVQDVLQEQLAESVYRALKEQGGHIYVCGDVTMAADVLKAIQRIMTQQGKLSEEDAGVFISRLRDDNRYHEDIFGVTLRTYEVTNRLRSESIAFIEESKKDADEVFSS
In words: NO formation by NOS1, total nitrite and nitrate (colorimetric). Format: biochemical. As to the method: Recombinant rat neuronal nitric oxide synthase (NOS1, Oxis, Portland, Oreg.), a constitutive enzyme, was used to assay NADPH oxidation in the presence of increasing concentrations of paraquat. Reactions (0.2 ml) were performed in bis-tris propane buffer (40 mM) containing L-arginine (1 mM), CaCl2 (1.2 mM), EDTA (0.9 mM), NADPH (0.35 mM), dithiothreitol (3 mM), tetrahydrobiopterin (4 μM), catalase (1 μg/ml) and calmodulin (200 U/ml) at pH 7.4. Reactions were initiated by the addition of 1.5 U of NOS1, and the oxidation of NADPH was continuously monitored at 340 nm for 1 minute at 37° C. in a plate reader. The rate of NOS-mediated NADPH oxidation was determined using an extinction coefficient of 6.22 mM^-1 cm^-1 after subtracting the baseline of NADPH oxidation.
The same microtiter plates used above were left at room temperature for 5 hours and then an aliquot was assayed for total nitrite and nitrate. Nitrite and nitrate were assayed using a non-enzymatic colorimetric kit (NB-88, Oxford Biomedical Research, Oxford, Mich.). NADPH oxidation was stopped after 5 hours by addition of 25 μl of zinc sulfate (30% w/v) to precipitate the NOS protein. Nitrate was non-enzymatically converted to nitrite by overnight incubation of 150 μl of reaction mixture from the NADPH oxidation assay with cadmium beads. Nitrite concentration was determined from a standard curve using 100 μl sample or standard. As shown FIG. 1(b), the formation of NO was inhibited by paraquat.

Series [7] deals with NOS2. The series can be described thus: NOS2 expression in macrophages. Type of series: cell-based. Particulars: 0.1 mM paraquat, cytomix; data not shown. The method, then:
The RAW-264.7 monocyte macrophage cells line (TIB-71) was purchased from the American Type Culture Collection (Manassas, Va.). The cells were grown in T-75 flasks containing DMEM (Gibco-BRL, Grand Island, N.Y.) supplemented with 1 mM pyruvate, 4.5 g/L glucose and […] fetal bovine serum Macrophages were plated at 2.0×10^4 cells/well in 24-well plates and experiments were performed when cells were near confluence. Macrophages were immunostimulated with 50 ng/ml lipopolysaccharide (LPS) from E. coli serotype 0111:B4 (Signia, St. Louis, Mo.) and 50 U/ml recombinant mouse interferon gamma (INF-γ, R&D Systems, Minneapolis,Minn.). Macrophages were used between passages 2-8. Cell cultures were kept in a 37° C. incubator with air and 5% carbon dioxide.
(§1) NOS2 was induced in RAW cells using a mixture of interferon-γ and lipopolysaccharide (LPS) referred to as "cytomix." Unstimulated (basal) and activated (cytomix) macrophages were treated with 0.1 mM paraquat or not treated with paraquat and cytotoxicity and NO production were assessed at 24 hours.

The test system of series [8] is nitrotyrosine. The series can be described thus: Nitrotyrosine staining in macrophages. Type of series: cell-based. The conditions noted are these: combination of paraquat and cytomix. The method, then:
Western blot analysis was carried out as follows. Cells were lysed in ice-cold 50 mM Tris buffer (pH 7.4) containing 1% sodium dodecyl sulfate and protease inhibitor cocktail (Boehringer Mannheim). Protein (10 μg) was separated on a 4-20% gradient SDS-PAGE at 250 V for 30 minutes and transferred onto a nitrocellulase membrane at 30 V for 12 hours. Proteins were detected using polyclonal antibodies against human NOS3 (TransductionLaboratories; 1/1000) and nitrated keyhole limpet hemocyanin, nitrotyrosine (Upstate Biology; 1/5000). Primary antibodies were detected with a goat anti-rabbit-HRP antibody (Jackson; 1/15,000) and developed using an ECL kit (Amersham).
The RAW-264.7 monocyte macrophage cells line (TIB-71) was purchased from the American Type Culture Collection (Manassas, Va.). The cells were grown in T-75 flasks containing DMEM (Gibco-BRL, Grand Island, N.Y.) supplemented with 1 mM pyruvate, 4.5 g/L glucose and […] fetal bovine serum Macrophages were plated at 2.0×10^4 cells/well in 24-well plates and experiments were performed when cells were near confluence. […]
as §1

The values that follow come from US6231894A, “Treatments based on discovery that nitric oxide synthase is a paraquat diaphorase” (Duke University, priority 1999, dated 2001).

The structures appear in SMILES notation.

In general, IC50 refers to the concentration at which inhibition is half-maximal. In the case of `C[n+]1ccc(-c2cc[n+](C)cc2)cc1` [paraquat], the adverse effect entry in series [1] is “complicating oral ulcerations”. The tumor regression result is “tumor is found to have regressed” in series [1] (seven days); “tumor regresses and is not longer detectable” in series [5]. Besides, the aconitase activity entry in series [2] (paraquat 0.1 mM plus 250 μM DETA NONOate) was “not seen in the paraquat/DETA NONOate group”; in series [2] (paraquat 0.1 mM plus cytomix), “a decrease in aconitase activity is seen”. Also, the “EDRF responses / vessel constriction, conclusion” value in series [3] (conclusion of Background Example 3) was “blocks EDRF responses and thereby constricts blood vessels”. For the same compound, the “inhibition of EDRF-induced relaxation, in words” value in series [3] (increasing paraquat, 15 min before acetylcholine, phenylephrine 1 μM, FIG. 3(a)) is reported as “dose-dependent inhibition of EDRF-induced relaxation”. Besides, in series [4], the patient condition result is given as “the patient is stabilized”. Further, in series [4] (from 80/60), the blood pressure is recorded as 100/70. For the same compound, the “NO formation (accumulation of nitrite and nitrate)” value in series [6] (FIG. 1(b), 5 hours at room temperature) is “concentration dependent decrease in NO formation”. The IC50 in series [6] (concentration that inhibited NO formation by 50%, 95% confidence level 47-82 μM, 5 hours, read-out: IC50, inhibition of NO formation) came to 62 µM. In addition, the NOS activity entry in series [6] (conclusion of Background Example 1) is “inhibits NOS activity”. Moreover, in series [7], the NOS2 expression entry was “not affected”. For the same compound, the nitrotyrosine staining entry in series [8] is reported as “A decrease in nitrotyrosine staining”.
